For one experiment, the species on record is Mus musculus. As to the kind of experiment: Agonistic activity was measured on the electrically stimulated longitudinal muscle of the mouse vas deferens (MVD) at 1 uM concentration. Particulars: Muscle tissue.
Another experiment is filed under the species Cavia porcellus. The experiment is described as follows: Agonistic activity was measured on the electrically stimulated longitudinal muscle of the guinea pig ileum (GPI) at 1 uM concentration. Conditions: Muscle tissue.

Peptide text beside a SMILES is read from it. * marks the point of attachment. Tyr(Nα,Nα-Bn2) = O=C([C@H](Cc1ccc(O)cc1)N(Cc1ccccc1)Cc1ccccc1)*; Tyr(Nα,Nα-allyl2) = C=CCN(CC=C)[C@@H](Cc1ccc(O)cc1)C(=O)*; X4 = O=C([C@H](Cc1ccc(O)cc1)N(CCc1ccccc1)CCc1ccccc1)*; X5 = CCCCCCCCN(CCCCCCCC)[C@@H](Cc1ccc(O)cc1)C(=O)*; X3 = O=C([C@H](Cc1ccc(O)cc1)N(CC1CC1)CC1CC1)*; X1 = CCCCCN(CCCCC)[C@@H](Cc1ccc(O)cc1)C(=O)*; X2 = CCCN(CCC)[C@@H](Cc1ccc(O)cc1)C(=O)*

One may read the inhibition as the relative decrease from the control value, in per cent. In the case of `CCCCCN(CCCCC)[C@@H](Cc1ccc(O)cc1)C(=O)NCC(=O)NCC(=O)N[C@@H](Cc1ccccc1)C(=O)N[C@@H](CC(C)C)C(=O)O` (X1-GGFL-OH), the inhibition at 1 µM worked out at 20.4% in the experiment listed under Mus musculus and 15.9% in the experiment listed under Cavia porcellus.
The matching figures for `CCCN(CCC)[C@@H](Cc1ccc(O)cc1)C(=O)NCC(=O)NCC(=O)N[C@@H](Cc1ccccc1)C(=O)N[C@@H](CC(C)C)C(=O)O` (X2-GGFL-OH): 11.9% and -2.6%.
The matching figures for `CC(C)C[C@H](NC(=O)[C@H](Cc1ccccc1)NC(=O)CNC(=O)CNC(=O)[C@H](Cc1ccc(O)cc1)N(CC1CC1)CC1CC1)C(=O)O` (X3-GGFL-OH): 27.3% and 2.2%.
With `CC(C)C[C@H](NC(=O)[C@H](Cc1ccccc1)NC(=O)CNC(=O)CNC(=O)[C@H](Cc1ccc(O)cc1)N(CCc1ccccc1)CCc1ccccc1)C(=O)O` (X4-GGFL-OH), the inhibition at 1 µM in the experiment listed under Mus musculus was determined as 60.5%; in the experiment listed under Cavia porcellus, 14.7%.
In the same order, the values of `CCCCCCCCN(CCCCCCCC)[C@@H](Cc1ccc(O)cc1)C(=O)NCC(=O)NCC(=O)N[C@@H](Cc1ccccc1)C(=O)N[C@@H](CC(C)C)C(=O)O` (X5-GGFL-OH) are 39.2% and 8.1%.
In the same order, the values of `CC(C)C[C@H](NC(=O)[C@H](Cc1ccccc1)NC(=O)CNC(=O)CNC(=O)[C@H](Cc1ccc(O)cc1)N(Cc1ccccc1)Cc1ccccc1)C(=O)O` ({Tyr(Nα,Nα-Bn2)}-GGFL-OH) are 11.4% and 1.9%.
On to `C=CCN(CC=C)[C@@H](Cc1ccc(O)cc1)C(=O)NCC(=O)NCC(=O)N[C@@H](Cc1ccccc1)C(=O)N[C@@H](CC(C)C)C(=O)O` ({Tyr(Nα,Nα-allyl2)}-GGFL-OH), for which the inhibition at 1 µM in the experiment filed under Mus musculus was 10%; in the experiment filed under Cavia porcellus, -6.7%.

(Values after ChEMBL document CHEMBL1123869, “N,N-dialkylated leucine enkephalins as potential delta opioid receptor antagonists” (1987).)
